According to paper PMC11718441, “Bis-3-chloropiperidines: a novel motif for anthelmintic drug design” (RSC Advances, 2025):
Converted amounts (≈) assume the structure as drawn. “Also recorded” adds a separate entry of the source. Where two headings read alike, the source gives them in different places.

How the values were obtained:
S. aureus ATCC33592 = assay: microbe, parasite or virus in culture; format: cell-based; details: Staphylococcus aureus, ATCC33592, read-out: MIC Sa
Protocol: (§1) The minimum inhibitory concentration (MIC) of the synthesized compounds was initially determined against three microbial indicator strains (Escherichia coli ATCC35218, […] ATCC33592, Septoria tritici MUCL45408). […]
(§2) 2. Microbial and parasitological studies
(§3) The minimum inhibitory concentration (MIC) of the synthesized compounds was determined against three microbial indicator strains (E. coli ATCC35218, S. aureus ATCC33592 and S. tritici MUCL45408) as previously described.1,2 All samples were dissolved in DMSO and tested in triplicate. Briefly, a pre-culture of E. coli and S. aureus was prepared by incubating the strains in cation adjusted Mueller Hinton 2 broth (Becton Dickinson, Sparks, NV, USA) at 37°C and 180 rpm overnight. The cell density of adjusted to 5 × 10^5 cells/mL before assays were incubated at 37 °C, 180 rpm and 85% rH. Three distinct dilution series of standard antibiotics (gentamicin, rifampicin, […]
(§4) medium without test compound or positive control was used as negative control.
(§5) Medium background was averaged from 5 replicates. The turbidity of each well was […]

[1] = tested on: Escherichia coli ATCC35218; assay: microbe, parasite or virus in culture; format: cell-based; details: ATCC35218, read-out: MIC Ec
Protocol: as §1, §2, §3, §4, §5

[2] = tested on: Septoria tritici MUCL45408; assay: Minimum inhibitory concentration (MIC), S. tritici (ATP quantification); format: cell-based; details: Zymoseptoria tritici, MUCL45408, 96 h, read-out: MIC St
Protocol: as §1, §2
The minimum inhibitory concentration (MIC) of the synthesized compounds was determined against three microbial indicator strains (E. coli ATCC35218, S. aureus ATCC33592 and S. tritici MUCL45408) as previously described.1,2 All samples were dissolved in DMSO and tested in triplicate. Briefly, a pre-culture of E. coli and S. aureus was prepared by incubating the strains in cation adjusted Mueller Hinton 2 broth (Becton Dickinson, Sparks, NV, USA) at 37°C and 180 rpm overnight. The cell density of adjusted to 5 × 10^5 cells/mL before assays were incubated at 37 °C, 180 rpm and 85% rH. Three distinct dilution series of standard antibiotics (gentamicin, rifampicin, and tetracycline) were used as positive controls on each assay plate. Inoculated medium without test compound or positive control was used as negative control.
Medium background was averaged from 5 replicates. The turbidity of each well was measured with a microplate spectrophotometer at 600 nm (LUMIstar® Omega, BMG Labtech) and growth inhibition was calculated relative to the absorption of the controls. For S. tritici MUCL45408 inoculated at a density of 1 × 10^5 cells/mL in potato […]
dextrose medium. Septoria assay plates were incubated for 4 days at 25 °C, 180 rpm and 85% rH. Tebuconazole, amphotericin B, and nystatin were used as positive controls. Cell viability was evaluated via ATP quantification (BacTiter-Glo™, Promega GmbH, Walldorf, Germany) according to the manufacturer’s instructions. […]

Schistosoma mansoni = assay: In vitro tests against Schistosoma mansoni (vitality parameters of adult worm pairs); format: cell-based; details: for lethal effects / sucker detachment: 20 μM; for lethal effects: after seven days; for sucker detachment: after three days; for Effect on S. mansoni: 10 and 20 μM, up to 7 days, Det: detachment of suckers, Mot: motility reduction, Sep: pair separation; for activity against S. mansoni (100% effect strength in one parameter within 7 days = active): 10 or 20 μM
Protocol: Subsequently, we tested whether compounds with nematocidal activity display a broader activity also against parasitic flatworms. To this end, in vitro tests against the blood fluke S. mansoni were conducted (Fig. 4). The worms were incubated in presence of 10 and 20 μM of compounds 1–22 and phenotypic vitality parameters (separation of worm pairs, detachment of suckers from the bottom of the well and weakening of body movements) were assessed as previously described.[31] Compounds reaching 100% effect strength in one of the parameters within 7 days were considered active. Reduction of motility is considered most relevant for antischistosomal drug candidates.[32] In addition, loss of sucker activity would make parasites drifting off from their host habitat (mesenteric veins) and with pair separation, the production of pathology-causing eggs eventually ceases.[33] […] For some molecular targets e.g. glutamate and GABA chloride channels (ivermecin, abamectin) and β-tubulin (albendazole, mebendazole) the C. elegans assays results were transferable to Schistosoma, while for others e.g. acetylcholin mimetic (levamisole) the C. elegans MMIC was not predicative (Fig. S1 ^†).
2.2 Parasitological studies
Animal experiments were performed in accordance with Directive 2010/63/EU on the protection of animals used for scientific purposes and the German Animal Welfare Act. The experiments were approved by the Regional Council (Regierungspraesidium) Giessen (V54 – […]
A Liberian strain of S. mansoni was maintained in the freshwater snail Biomphalaria glabrata as intermediate host and Syrian hamsters (Mesocricetus auratus) as final host (Janvier Labs, France).5,6 Hamsters were infected at 8 weeks of age with 1,750 cercariae by using the paddling method.7 Adult worms were collected at 46 days p.i. by hepatoportal perfusion and cultured in M199 medium (Sigma-Aldrich, Germany) supplemented with 10% Newborn Calf Serum (NCS, Sigma-Aldrich), 1% 1 M HEPES (ThermoFisher Scientific, USA) and 1% ABAM solution (10,000 units/ml penicillin, 10 mg/ml streptomycin and […] amphotericin B; Sigma-Aldrich, Germany) at 37 °C, 5% CO2 and humidified atmosphere.
2.2.3. In vitro tests against Schistosoma mansoni
Test compounds were added at 10 µM or 20 µM in supplemented M199 medium to schistosomes (5 worm pairs per replicate) followed by a 7 d in vitro culture. Worms receiving the solvent DMSO at equal dilution served as negative control. The following vitality parameters were assessed every 24 h by bright field microscopy using a Leica DM IL inverted microscope and x2.5 objective lens: separation of worm pairs into male and female worms; detachment of suckers from the bottom; and weakening of body movements. Worm motility was scored as described previously, 8 with the scores 3 (normal motility), 2 (reduced motility), 1 (minimal and sporadic movements), 0 (no movements within 20 sec; dead worms). An average score of all worms per well was calculated to obtain a motility score. An average motility score of 0, separation of all pairs or detachment of all worms per well was considered

MDCK II cells = assay: In vitro cytotoxicity, CellTiter-Glo, MDCK II cells; details: 100 μM; for MDCKII cytotoxicity: 48 h, cell viability less than 80% relative to DMSO control = cytotoxic
in vitro = details: dog
[3] = tested on: C. elegans strains N2 and DC19; assay: MMIC against C. elegans, strains N2 and DC19 reported together or strain not stated; format: cell-based; details: Caenorhabditis elegans, 48 h
From the text: (§6) The cuticle of C. elegans strain DC19 is known to be more permeable for small molecules compared to the wildtype N2.[30] DC19 is thereby considered an informative drug-sensitive test organism. In our assays, we determined the minimum mobility inhibitory concentration (MMIC) as a proxy for anthelmintic activity. […] In contrast, MMICs of some small molecule anthelmintics such as albendazole, mebendazole or PF-1022A were lower for DC19 (Fig. S1 ^†). […]
(§7) 2.2 In vitro tests against Caenorhabditis Elegans
(§8) The minimal motility inhibitory concentration (MMIC) of compounds 1-22 against C. elegans was determined as described before.3 Both strains, C. elegans N2 and DC19 were treated identically. Briefly, pre-cultures of C.elegans were kept on NGM agar plates infused with auxotrophic E.coli OP50 as food source.4 After 4 days the plates contained sufficient gravid worms, respectively. Worms were washed from the plates with M9 buffer using wide bore pipette tips. Egg preparation was carried out by treating the harvested worms with an alkaline hypochlorite solution (5 M NaOH + 5 % NaOCl 1:2) in polypropylene tubes. Larvae and adult […]
(§9) We carried out 3 washing steps (M9 buffer) to remove carry-over hypochlorite solution. Subsequently, the eggs were incubated overnight in NGM broth on a rotator to yield synchronized hatched L1/L2 larvae. The larvae solution was adjusted to 100 worms/mL and supplemented with cholesterol (5 µg/mL), carbenicillin (25 µg/mL) and E.coli OP50 (0.5%). This assay solution was distributed into 96 well plates and incubated with a dilution series of compounds 1-22 (64-0.5 µg/mL). An additional eight-point dilution series of ivermecin (40 – 0.3 ng/mL) was used as positive control on each assay plate. Solvent background was controlled by supplementation of pure DMSO without any compound. Assays were incubated for 2 days at room temperature. Finally, a cell imaging multimode reader (Cytation™ 5) was used to record short videos (1.5 seconds) of each individual test well. The videos were used to evaluate the worm motility.

C. elegans DC19 = assay: whole plant or invertebrate; format: cell-based, Caenorhabditis elegans; details: Caenorhabditis elegans, 48 h, read-out: MMIC DC19
From the text: as §6, §7, §8, §9

C. elegans N2 = assay: whole plant or invertebrate; format: cell-based, Caenorhabditis elegans; details: Caenorhabditis elegans, 48 h, read-out: MMIC N2
From the text: as §6, §7, §8, §9

[4] = C. elegans, read-out: MMIC N2 and DC19

Structure (SMILES) | MIC (S. aureus ATCC33592) | MIC [1] | MIC [2] | lethal effects (Schistosoma mansoni) | sucker detachment (Schistosoma mansoni) | Effect on S. mansoni (Schistosoma mansoni) | activity against S. mansoni (100% effect strength in one parameter within 7 days = active) (Schistosoma mansoni) | cytotoxicity against MDCK II (in words) (MDCK II cells) | MDCKII cytotoxicity (MDCK II cells) | CC50 (in vitro) | minimal effective concentration [3, 4] | minimal effective concentration (C. elegans DC19) | minimal effective concentration (C. elegans N2) | sucker detachment of Schistosoma worm pairs (Schistosoma mansoni; 10 μM) | motility score (Schistosoma mansoni; score 3 normal motility to 0 dead, paragraph on 20 μM) | separation of worm pairs (Schistosoma mansoni; 10 μM, after 3 days) | minimal effective concentration ([3]; read-out: MMIC N2 and DC19, C. elegans)
COc1cc(CN2CC(Cl)CC(C)(C)C2)cc(CN2CC(Cl)CC(C)(C)C2)c1 (stereo not drawn) [Compound 2] | > 64 µg/mL | > 64 µg/mL | 64 µg/mL (≈ 150 µM) | lethal effect | sucker detachment already after three days | Det, Sep, Mot, Lethal | showed an effect on S. mansoni; also recorded: active at 20 μM | did not exhibit cytotoxic properties | − (“−” (not toxic)) | 83 µM | < 20 µg/mL |  |  |  |  |  | 
COC(=O)c1cc(CN2CC(Cl)CC(C)(C)C2)cc(CN2CC(Cl)CC(C)(C)C2)c1 (stereo not drawn) [Compound 4] | > 64 µg/mL | > 64 µg/mL | > 64 µg/mL |  |  |  | no activity |  | − (“−” (not toxic)) | 205 µM | < 20 µg/mL | 16 µg/mL | 16 µg/mL |  |  |  | 
CC1(C)CC(Cl)CN(Cc2cc(CN3CC(Cl)CC(C)(C)C3)cc([N+](=O)[O-])c2)C1 (stereo not drawn) [Compound 5] | > 64 µg/mL | > 64 µg/mL | > 64 µg/mL |  |  | Det, Sep, Lethal | showed an effect on S. mansoni; also recorded: active at 10 μM |  | − (“−” (not toxic)) | > 1000 µM | < 20 µg/mL | 16 µg/mL | 16 µg/mL | full sucker detachment | 1–1.2 |  | 
COc1ccc(CN2CC(Cl)CC(C)(C)C2)c(CN2CC(Cl)CC(C)(C)C2)c1 (stereo not drawn) [Compound 9] | > 64 µg/mL | > 64 µg/mL | > 64 µg/mL | lethal effects | sucker detachment already after three days | Det, Sep, Lethal | Schistosoma-specific; also recorded: active at 20 μM | cytotoxic | + (“+” (toxic)) | 70 µM |  | 64 µg/mL | > 64 µg/mL |  |  | separation of all worm pairs | 64 µg/mL
CC1(C)CC(Cl)CN(Cc2cc(CN3CC(Cl)CC(C)(C)C3)cc(CN3CC(Cl)CC(C)(C)C3)c2)C1 (stereo not drawn) [Compound 21] | > 64 µg/mL | > 64 µg/mL | > 64 µg/mL |  |  |  | did not affect Schistosoma | did not exhibit cytotoxic properties | − (“−” (not toxic)) | > 1000 µM | < 20 µg/mL |  |  |  |  |  | 
